Like-named read-outs stand apart in the source and are kept apart here.
Molecular target: APJ (Homo sapiens (Human), UniProt P35414)
Test: [35S]GTPγS binding assay on membranes from CHO cells stably expressing human APJ receptor
Format: biochemical
[1] = read-out: Activity hAPJ SPA EC50 IP

Chain of APJ (P35414 whole entry): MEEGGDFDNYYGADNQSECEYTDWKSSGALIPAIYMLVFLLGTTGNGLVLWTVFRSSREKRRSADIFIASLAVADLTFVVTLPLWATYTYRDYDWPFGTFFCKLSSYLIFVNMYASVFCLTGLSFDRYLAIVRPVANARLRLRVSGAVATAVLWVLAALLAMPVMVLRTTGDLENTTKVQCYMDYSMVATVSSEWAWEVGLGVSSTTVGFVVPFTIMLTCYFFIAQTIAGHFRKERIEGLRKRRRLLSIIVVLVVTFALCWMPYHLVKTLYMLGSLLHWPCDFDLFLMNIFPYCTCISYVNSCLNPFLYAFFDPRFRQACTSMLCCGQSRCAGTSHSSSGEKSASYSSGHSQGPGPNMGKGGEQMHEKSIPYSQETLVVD
Procedure: A GTPγS binding assay was performed on membranes prepared from CHO cells stably expressing human APJ receptor. The optimum experimental conditions for the concentrations of GDP, MgCl2, and NaCl in the assay buffer were initially determined. The assay was performed in assay buffer [20 mM HEPES, pH 7.5, 5 mM MgCl2, and 0.1% (w/v) BSA with 200 mM NaCl, 3 M GDP] and membranes expressing human APJ receptor/well along with WGA PS beads. The reaction was initiated by addition of 0.2 nM [^35S]GTPγS (Perkin Elmer Life and Analytical Sciences, Waltham USA) in the absence or presence of various ligands and incubated at RT for 90 min. Nonspecific binding was determined in the presence of 100 M GTPγS and was always less than 0.2% of total binding.

`COc1cccc(OC)c1-n1c(NS(=O)(=O)[C@@H](C)[C@H](C)c2ncc(C)cn2)nnc1-c1cncc(C2CC2)c1` [Example 734.0, (2S,3R)-N-(5-(5-cyclopropylpyridin-3-yl)-4-(2,6-dimethoxyphenyl)-4H-1,2,4-triazol-3-yl)-3-(5-methylpyrimidin-2-yl)butane-2-sulfonamide] showed an EC50 (Activity hAPJ SPA EC50 IP (μM)) of 0.002 µM.
With `COc1cccc(OC)c1-n1c(NS(=O)(=O)[C@@H]2CCCO[C@@H]2c2ncc(C)cn2)nnc1-c1cncc(C)c1` (single isomer, unassigned) [Example 645.0] the EC50 [1] was 0.06 µM.
In the case of `COc1cccc(OC)c1-n1c(NS(=O)(=O)[C@@H](C)[C@H](O)c2ccc(C#N)cc2)nnc1-c1cncc(C)c1` (mixture of isomers) [Example 247.0, (1R,2S)-1-(4-cyanophenyl)-N-(4-(2,6-dimethoxyphenyl)-5-(5-methyl-3-pyridinyl)-4H-1,2,4-triazol-3-yl)-1-hydroxy-2-propanesulfonamide and (1S,2R)-1-(4-cyanophenyl)-N-(4-(2,6-dimethoxyphenyl)-5-(5-methyl-3-pyridinyl)-4H-1,2,4-triazol-3-yl)-1-hydroxy-2-propanesulfonamide], the EC50 [1] is reported as 0.0038 µM.
`COc1cccc(-c2nnc(NS(=O)(=O)[C@H](C)[C@@H](O)c3cn4ccccc4n3)n2-c2c(OC)cccc2OC)n1` (mixture of isomers) [Example 256.0, (1S,2R)-N-(4-(2,6-dimethoxyphenyl)-5-(6-methoxypyridin-2-yl)-4H-1,2,4-triazol-3-yl)-1-hydroxy-1-(imidazo[1,2-a]pyridin-2-yl)propane-2-sulfonamide and (1R,2S)-N-(4-(2,6-dimethoxyphenyl)-5-(6-methoxypyridin-2-yl)-4H-1,2,4-triazol-3-yl)-1-hydroxy-1-(imidazo[1,2-a]pyridin-2-yl)propane-2-sulfonamide] showed an EC50 [1] of 0.0004 µM.
`COc1cccc(-c2nnc(NS(=O)(=O)[C@H](C)[C@H](OC(C)C)c3cnc(C)cn3)n2-c2c(OC)cccc2OC)n1` (single isomer, unassigned) [Example 825.0, (1S,2S)-N-(4-(2,6-dimethoxyphenyl)-5-(6-methoxypyridin-2-yl)-4H-1,2,4-triazol-3-yl)-1-isopropoxy-1-(5-methylpyrazin-2-yl)propane-2-sulfonamide or (1R,2R)-N-(4-(2,6-dimethoxyphenyl)-5-(6-methoxypyridin-2-yl)-4H-1,2,4-triazol-3-yl)-1-isopropoxy-1-(5-methylpyrazin-2-yl)propane-2-sulfonamide] was tested, and the EC50 [1] was 0.00015 µM.
With `COc1cccc(OC)c1-n1c(NS(=O)(=O)[C@@H](C)[C@H](OC)c2ncnn2C)nnc1-c1cncc(C)c1` (single isomer, unassigned) [Example 782.0, (1R,2S)-N-(4-(2,6-dimethoxyphenyl)-5-(5-methyl-3-pyridinyl)-4H-1,2,4-triazol-3-yl)-1-methoxy-1-(1-methyl-1H-1,2,4-triazol-5-yl)-2-propanesulfonamide or (1S,2R)-N-(4-(2,6-dimethoxyphenyl)-5-(5-methyl-3-pyridinyl)-4H-1,2,4-triazol-3-yl)-1-methoxy-1-(1-methyl-1H-1,2,4-triazol-5-yl)-2-propanesulfonamide] the EC50 (Activity hAPJ SPA EC50 IP (μM)) was 0.028 µM.
`COc1cccc(OC)c1-n1c(NS(=O)(=O)[C@@H](C)Cc2ncc(F)cn2)nnc1-c1cncc(C)c1` (mixture of isomers) [Example 207.0, (S)-N-(4-(2,6-dimethoxyphenyl)-5-(5-methylpyridin-3-yl)-4H-1,2,4-triazol-3-yl)-1-(5-fluoropyrimidin-2-yl)propane-2-sulfonamide and (R)-N-(4-(2,6-dimethoxyphenyl)-5-(5-methylpyridin-3-yl)-4H-1,2,4-triazol-3-yl)-1-(5-fluoropyrimidin-2-yl)propane-2-sulfonamide] showed an EC50 [1] of 0.0033 µM.
In the case of `COc1cccc(-c2nnc(NS(=O)(=O)C[C@H](O)c3ccc(C#N)cn3)n2-c2c(OC)cccc2OC)n1` (mixture of isomers) [Example 331.0, (R)-2-(5-cyanopyridin-2-yl)-N-(4-(2,6-dimethoxyphenyl)-5-(6-methoxypyridin-2-yl)-4H-1,2,4-triazol-3-yl)-2-hydroxyethanesulfonamide and (S)-2-(5-cyanopyridin-2-yl)-N-(4-(2,6-dimethoxyphenyl)-5-(6-methoxypyridin-2-yl)-4H-1,2,4-triazol-3-yl)-2-hydroxyethanesulfonamide], the EC50 (Activity hAPJ SPA EC50 IP (μM)) is reported as 0.00024 µM.
`COc1cccc(-c2nnc(NS(=O)(=O)[C@H](C)[C@@H](O)c3cn(C)cn3)n2-c2c(OC)cccc2OC)n1` (mixture of isomers) [Example 258.0, (1S,2R)-N-(4-(2,6-dimethoxyphenyl)-5-(6-methoxypyridin-2-yl)-4H-1,2,4-triazol-3-yl)-1-hydroxy-1-(1-methyl-1H-imidazol-4-yl)propane-2-sulfonamide and (1R,2S)-N-(4-(2,6-dimethoxyphenyl)-5-(6-methoxypyridin-2-yl)-4H-1,2,4-triazol-3-yl)-1-hydroxy-1-(1-methyl-1H-imidazol-4-yl)propane-2-sulfonamide] showed an EC50 [1] of 0.002 µM.
For `COc1cccc(OC)c1-n1c(NS(=O)(=O)[C@@H](C)[C@H](C)c2ncc(F)c([C@@H]3COCCO3)n2)nnc1-c1cccc(OCC(O)(C(F)(F)F)C(F)(F)F)n1` (single isomer, unassigned) [Example 639.0], the EC50 [1] was 0.16 µM.
Work on `COc1cccc(OC)c1-n1c(NS(=O)(=O)[C@@H](C)Cc2ncc(F)cn2)nnc1-c1cncc(Cl)c1` (mixture of isomers) [Example 219.0, (2S)-N-(5-(5-chloro-3-pyridinyl)-4-(2,6-dimethoxyphenyl)-4H-1,2,4-triazol-3-yl)-1-(5-fluoro-2-pyrimidinyl)-2-propanesulfonamide and (2R)-N-(5-(5-chloro-3-pyridinyl)-4-(2,6-dimethoxyphenyl)-4H-1,2,4-triazol-3-yl)-1-(5-fluoro-2-pyrimidinyl)-2-propanesulfonamide] yielded an EC50 [1] of 0.0085 µM.
For `COc1cccc(OC)c1-n1c(NS(=O)(=O)[C@@H](C)[C@H](O)c2ccc(C#N)cc2)nnc1-c1cncc(C)c1` (single isomer, unassigned) [Example 249.0, (1R,2S)-1-(4-cyanophenyl)-N-(4-(2,6-dimethoxyphenyl)-5-(5-methyl-3-pyridinyl)-4H-1,2,4-triazol-3-yl)-1-hydroxy-2-propanesulfonamide or (1S,2R)-1-(4-cyanophenyl)-N-(4-(2,6-dimethoxyphenyl)-5-(5-methyl-3-pyridinyl)-4H-1,2,4-triazol-3-yl)-1-hydroxy-2-propanesulfonamide], the EC50 [1] was 0.0011 µM.
For `COc1cccc(-c2nnc(NS(=O)(=O)[C@@H]3CCCO[C@@H]3c3ncc(C)cn3)n2-c2c(OC)cccc2OC)n1` (single isomer, unassigned) [Example 657.0], the EC50 [1] was 0.014 µM.
For `COc1cccc(-c2nnc(NS(=O)(=O)[C@@H](C)[C@H](C)c3ncc(F)cn3)n2-c2cn(C)c3ccccc23)n1` (racemic) [Example 451.0, (2S,3R)-3-(5-fluoro-2-pyrimidinyl)-N-(5-(6-methoxy-2-pyridinyl)-4-(1-methyl-1H-indol-3-yl)-4H-1,2,4-triazol-3-yl)-2-butanesulfonamide and (2R,3S)-3-(5-fluoro-2-pyrimidinyl)-N-(5-(6-methoxy-2-pyridinyl)-4-(1-methyl-1H-indol-3-yl)-4H-1,2,4-triazol-3-yl)-2-butanesulfonamide], the EC50 (Activity hAPJ SPA EC50 IP (μM)) was 0.045 µM.
For `CC#C[C@@H](O)[C@H](C)S(=O)(=O)Nc1nnc(-c2cncc(C)c2)n1-c1c(OC)cccc1OC` (racemic) [Example 764.0, (2R,3S)-N-(4-(2,6-dimethoxyphenyl)-5-(5-methyl-3-pyridinyl)-4H-1,2,4-triazol-3-yl)-3-hydroxy-4-hexyne-2-sulfonamide and (2S,3R)-N-(4-(2,6-dimethoxyphenyl)-5-(5-methyl-3-pyridinyl)-4H-1,2,4-triazol-3-yl)-3-hydroxy-4-hexyne-2-sulfonamide], the EC50 (Activity hAPJ SPA EC50 IP (μM)) was 0.027 µM.
In the case of `COc1cccc(OC)c1-n1c(NS(=O)(=O)[C@@H](C)[C@@H](OC(C)C)c2ncc(C)cn2)nnc1-c1cccnc1` (stereo in doubt) [Example 625.0], the EC50 [1] is reported as 0.11 µM.
For `COc1cccc(-c2nnc(NS(=O)(=O)C[C@H](OC)c3ccc(F)cn3)n2-c2c(OC)cccc2OC)n1` (mixture of isomers) [Example 328.0, (2R)-N-(4-(2,6-dimethoxyphenyl)-5-(6-methoxy-2-pyridinyl)-4H-1,2,4-triazol-3-yl)-2-(5-fluoro-2-pyridinyl)-2-methoxyethanesulfonamide and (2S)-N-(4-(2,6-dimethoxyphenyl)-5-(6-methoxy-2-pyridinyl)-4H-1,2,4-triazol-3-yl)-2-(5-fluoro-2-pyridinyl)-2-methoxyethanesulfonamide], the EC50 (Activity hAPJ SPA EC50 IP (μM)) was 0.00033 µM.
For `COc1cnc([C@@H](OC)[C@H](C)S(=O)(=O)Nc2nnc(-c3cncc(C)c3)n2-c2c(OC)cccc2OC)cn1` (single isomer, unassigned) [Example 310.0], the EC50 (Activity hAPJ SPA EC50 IP (μM)) was 0.00066 µM.
Compound `COc1cccc(OC)c1-n1c(NS(=O)(=O)[C@@H](C)[C@H](OC)c2ncc(C)o2)nnc1-c1cncc(C)c1` (single isomer, unassigned) [Example 632.0, (1S,2R)-N-(4-(2,6-dimethoxyphenyl)-5-(5-methylpyridin-3-yl)-4H-1,2,4-triazol-3-yl)-1-methoxy-1-(5-methyloxazol-2-yl)propane-2-sulfonamide or (1R,2S)-N-(4-(2,6-dimethoxyphenyl)-5-(5-methylpyridin-3-yl)-4H-1,2,4-triazol-3-yl)-1-methoxy-1-(5-methyloxazol-2-yl)propane-2-sulfonamide] has an EC50 [1] of 0.21 µM.
`COc1cccc(-c2nnc(NS(=O)(=O)C[C@H](O)c3ccc(C#N)cc3S(C)(=O)=O)n2-c2c(OC)cccc2OC)n1` (mixture of isomers) [Example 481.0, (2S)-2-(4-cyano-2-(methylsulfonyl)phenyl)-N-(4-(2,6-dimethoxyphenyl)-5-(6-methoxy-2-pyridinyl)-4H-1,2,4-triazol-3-yl)-2-hydroxyethanesulfonamide and (2R)-2-(4-cyano-2-(methylsulfonyl)phenyl)-N-(4-(2,6-dimethoxyphenyl)-5-(6-methoxy-2-pyridinyl)-4H-1,2,4-triazol-3-yl)-2-hydroxyethanesulfonamide] showed an EC50 (Activity hAPJ SPA EC50 IP (μM)) of 0.00024 µM.
For `COc1cccc(-c2nnc(NS(=O)(=O)[C@@H](C)[C@H](O)c3ccc(F)cc3S(C)(=O)=O)n2-c2c(OC)cccc2OC)n1` [Example 288.0], the EC50 (Activity hAPJ SPA EC50 IP (μM)) was 0.0011 µM.
